# Results as given in patent US20100267561A1, “HERBICIDAL PYRIDAZINONE DERIVATIVES” (priority 2007, published 2010).
# Legend:
# Type in all cases: in vivo
# rice (Oryza sativa) = assay: Test B flooded paddy test plant response
# In short: (§1)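 2-leaf plants; pots flooded 3 cm above soil; compound added to paddy water; depth maintained. Greenhouse 13–15 d. Visual rating vs controls, 0 (no effect) to 100 (complete control); dash = no result.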
# [1] = system: ducksalad (Heteranthera limosa); assay: Test B flooded paddy test plant response
# In short: as §1
# [2] = system: green foxtail (Setaria viridis); assay: Test B pre-/postemergence plant response; conditions: for Foxtail, Green plant response rating: 8 g ai/ha
# In short: (§2)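 Visual scoring from 0 (no effect) to 100 (complete control) against untreated controls was done 13 to 15 days after greenhouse treatment. Chemicals were formulated in a surfactant-containing non-phytotoxic solvent and applied to soil preemergence or to 1- to 4-leaf (2-18 cm) plants postemergence.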
# [3] = system: common (oilseed) sunflower (Helianthus annuus); assay: Test B pre-/postemergence plant response; conditions: Preemergence
# In short: as §2
# [4] = system: velvetleaf (Abutilon theophrasti); assay: Test B pre-/postemergence plant response; conditions: for Velvetleaf plant response rating: 8 g ai/ha
# In short: as §2
# [5] = system: common ragweed (Ambrosia elation); assay: Test B pre-/postemergence plant response; conditions: for Ragweed plant response rating: 8 g ai/ha
# In short: as §2
# [6] = system: giant foxtail (Setaria faberii); assay: Test B pre-/postemergence plant response; conditions: for Foxtail, Giant plant response rating: 8 g ai/ha
# In short: as §2
# [7] = system: woolly cupgrass (Eriochloa villosa); assay: Test B pre-/postemergence plant response; conditions: for Cupgrass, Woolly plant response rating: 8 g ai/ha
# In short: as §2
# [8] = system: eastern black (E.B.) nightshade (Solanum ptycanthum); assay: Test B pre-/postemergence plant response; conditions: Preemergence
# In short: as §2
# [9] = system: goosegrass (Eleusine indica); assay: Test B pre-/postemergence plant response; conditions: for Goosegrass plant response rating: 8 g ai/ha
# In short: as §2
# wild oat (Avena fatua) = assay: Test B pre-/postemergence plant response; conditions: for Oat, Wild plant response rating: 8 g ai/ha
# In short: as §2
# [10] = system: johnsongrass (Sorghum halepense); assay: Test B pre-/postemergence plant response; conditions: for Johnsongrass plant response rating: 8 g ai/ha
# In short: as §2
# [11] = system: pigweed (Amaranthus retroflexus); assay: Test B pre-/postemergence plant response; conditions: for Pigweed plant response rating: 8 g ai/ha
# In short: as §2
# [12] = system: large crabgrass (Digitaria sanguinalis); assay: Test B pre-/postemergence plant response; conditions: for Crabgrass, Large plant response rating: 8 g ai/ha
# In short: as §2
# [13] = Flood (flooded paddy test), 62 g ai/ha, scale 0 to 100, 0 no effect, 100 complete control
# [14] = Flood (flooded paddy test), 125 g ai/ha, scale 0 to 100, 0 no effect, 100 complete control
# [15] = Flood (flooded paddy test), 250 g ai/ha, scale 0 to 100, 0 no effect, 100 complete control
# [16] = Flood, 31 g ai/ha, scale 0 to 100
# [17] = Postemergence, 16 g ai/ha, scale 0 to 100
# [18] = Postemergence, 31 g ai/ha, scale 0 to 100, 0 no effect, 100 complete control
# [19] = Postemergence, 62 g ai/ha, scale 0 to 100
# [20] = Preemergence, 16 g ai/ha, scale 0 to 100 (0 no effect, 100 complete control)
# [21] = Preemergence, 31 g ai/ha, 0 to 100 scale, 0 no effect, 100 complete control
# [22] = Preemergence, 62 g ai/ha, scale 0 to 100
# [23] = 16 g ai/ha, scale 0 to 100 (0 no effect, 100 complete control)
smiles,measurement,setting,value
CCc1cc(-c2ccc(Cl)c(Cl)c2)nn1-c1c(O)cnn(C)c1=O [Compound 20],"Plant response rating, Rice",rice (Oryza sativa); [13],0
same,"Plant response rating, Rice",rice (Oryza sativa); [14],0
same,"Plant response rating, Rice",rice (Oryza sativa); [15],0
same,"Plant response rating, Rice",rice (Oryza sativa); [16],0
same,"Plant response rating, Ducksalad",[1]; [13],0
same,"Plant response rating, Ducksalad",[1]; [14],0
same,"Plant response rating, Ducksalad",[1]; [15],0
same,"Plant response rating, Ducksalad",[1]; [16],0
same,"Foxtail, Green plant response rating","[2]; postemergence, 0-100 scale",20
same,"Plant response rating, Foxtail, Green",[2]; [17],60
same,"Plant response rating, Foxtail, Green",[2]; [18],85
same,"Plant response rating, Foxtail, Green",[2]; [19],95
same,"Plant response rating, Foxtail, Green",[2]; [20],95
same,"Plant response rating, Foxtail, Green",[2]; [21],100
same,"Plant response rating, Foxtail, Green",[2]; [22],100
same,"Foxtail, Green plant response rating","[2]; Preemergence, scale 0 to 100",20
same,"Plant response rating, Sunflower",[3]; [23],0
same,"Plant response rating, Sunflower","[3]; 31 g ai/ha, 0 to 100 scale, 0 no effect, 100 complete control",30
same,"Plant response rating, Sunflower","[3]; 62 g ai/ha, scale 0 to 100",40
same,Sunflower plant response rating,"[3]; 8 g ai/ha, scale 0 to 100",0
same,Velvetleaf plant response rating,"[4]; postemergence, 0-100 scale",0
same,"Plant response rating, Velvetleaf",[4]; [17],0
same,"Plant response rating, Velvetleaf",[4]; [18],0
same,"Plant response rating, Velvetleaf",[4]; [19],0
same,"Plant response rating, Velvetleaf",[4]; [20],0
same,"Plant response rating, Velvetleaf",[4]; [21],0
same,"Plant response rating, Velvetleaf",[4]; [22],0
same,Velvetleaf plant response rating,"[4]; Preemergence, scale 0 to 100",0
same,Ragweed plant response rating,"[5]; postemergence, 0-100 scale",0
same,"Plant response rating, Ragweed",[5]; [17],0
same,"Plant response rating, Ragweed",[5]; [18],0
same,"Plant response rating, Ragweed",[5]; [19],0
same,"Plant response rating, Ragweed",[5]; [22],0
same,Ragweed plant response rating,"[5]; Preemergence, scale 0 to 100",0
same,"Foxtail, Giant plant response rating","[6]; postemergence, 0-100 scale",80
same,"Plant response rating, Foxtail, Giant",[6]; [17],90
same,"Plant response rating, Foxtail, Giant",[6]; [18],95
same,"Plant response rating, Foxtail, Giant",[6]; [19],95
same,"Plant response rating, Foxtail, Giant",[6]; [20],0
same,"Plant response rating, Foxtail, Giant",[6]; [21],50
same,"Plant response rating, Foxtail, Giant",[6]; [22],100
same,"Foxtail, Giant plant response rating","[6]; Preemergence, scale 0 to 100",0
same,"Cupgrass, Woolly plant response rating","[7]; postemergence, 0-100 scale",45
same,"Plant response rating, Cupgrass, Woolly",[7]; [17],90
same,"Plant response rating, Cupgrass, Woolly",[7]; [18],90
same,"Plant response rating, Cupgrass, Woolly",[7]; [19],100
same,"Plant response rating, Cupgrass, Woolly",[7]; [20],30
same,"Plant response rating, Cupgrass, Woolly",[7]; [21],50
same,"Plant response rating, Cupgrass, Woolly",[7]; [22],98
same,"Cupgrass, Woolly plant response rating","[7]; Preemergence, scale 0 to 100",0
same,"Plant response rating, Nightshade, E. B.",[8]; [23],0
same,"Plant response rating, Nightshade, E. B.","[8]; 62 g ai/ha, scale 0 to 100",0
same,"Nightshade, E. B. plant response rating","[8]; 8 g ai/ha, scale 0 to 100",0
same,Goosegrass plant response rating,"[9]; postemergence, 0-100 scale",5
same,"Plant response rating, Goosegrass",[9]; [17],20
same,"Plant response rating, Goosegrass",[9]; [18],65
same,"Plant response rating, Goosegrass",[9]; [19],80
same,"Plant response rating, Goosegrass",[9]; [20],0
same,"Plant response rating, Goosegrass",[9]; [22],70
same,Goosegrass plant response rating,"[9]; Preemergence, scale 0 to 100",0
same,"Oat, Wild plant response rating","wild oat (Avena fatua); postemergence, 0-100 scale",50
same,"Plant response rating, Oat, Wild",wild oat (Avena fatua); [17],90
same,"Plant response rating, Oat, Wild",wild oat (Avena fatua); [18],90
same,"Plant response rating, Oat, Wild",wild oat (Avena fatua); [19],90
same,"Plant response rating, Oat, Wild",wild oat (Avena fatua); [20],0
same,"Plant response rating, Oat, Wild",wild oat (Avena fatua); [21],50
same,"Plant response rating, Oat, Wild",wild oat (Avena fatua); [22],60
same,"Oat, Wild plant response rating","wild oat (Avena fatua); Preemergence, scale 0 to 100",0
same,Johnsongrass plant response rating,"[10]; postemergence, 0-100 scale",30
same,"Plant response rating, Johnsongrass",[10]; [17],75
same,"Plant response rating, Johnsongrass",[10]; [18],100
same,"Plant response rating, Johnsongrass",[10]; [19],100
same,"Plant response rating, Johnsongrass",[10]; [20],50
same,"Plant response rating, Johnsongrass",[10]; [21],75
same,"Plant response rating, Johnsongrass",[10]; [22],95
same,Johnsongrass plant response rating,"[10]; Preemergence, scale 0 to 100",0
same,Pigweed plant response rating,"[11]; postemergence, 0-100 scale",0
same,"Plant response rating, Pigweed",[11]; [17],0
same,"Plant response rating, Pigweed",[11]; [18],0
same,"Plant response rating, Pigweed",[11]; [19],0
same,"Plant response rating, Pigweed",[11]; [20],0
same,"Plant response rating, Pigweed",[11]; [21],0
same,"Plant response rating, Pigweed",[11]; [22],0
same,Pigweed plant response rating,"[11]; Preemergence, scale 0 to 100",0
same,"Crabgrass, Large plant response rating","[12]; postemergence, 0-100 scale",5
same,"Plant response rating, Crabgrass, Large",[12]; [17],70
same,"Plant response rating, Crabgrass, Large",[12]; [18],85
same,"Plant response rating, Crabgrass, Large",[12]; [19],90
same,"Plant response rating, Crabgrass, Large",[12]; [20],50
same,"Plant response rating, Crabgrass, Large",[12]; [21],50
same,"Plant response rating, Crabgrass, Large",[12]; [22],60
same,"Crabgrass, Large plant response rating","[12]; Preemergence, scale 0 to 100",0
